Experiments:
[1] = tested on: Mycobacterium terrae bacteria; assay: bacterial suspension test; assay type: cell-based; details: for Germicidal Efficacy: summary Table 14
Method: The bacterial suspension test that was employed is described in Section VII.
The solutions were prepared by adding the appropriate amounts of the germicidal compounds to an aqueous solution. Unless otherwise mentioned all concentrations reported herein are expressed in (w/v) %. The pH of the solution was not adjusted. The tests were conducted at a temperature of about 20° C. (room temperature). The results are presented in terms of log reductions/mL. It is understood that these examples, as well as the other examples herein, are to be construed as merely illustrative, and not limiting.
In this test method, 9 mL of the germicide to be tested is placed in a tube, put into a water bath and allowed to come to the desired temperature. One mL of the test organism, including at least 7 logs/mL of Mycobacterium terrae bacteria, is added to the 9 mL of the germicide to be tested. […] It will be appreciated by those skilled in the art that other concentrations may be utilized by proper dilution and accounting.
At appropriate time intervals, 1 mL aliquots of the germicide-cell suspension were removed and added directly into 9 mL of a 1% glycine solution (neutralizer) and mixed thoroughly to neutralize the germicide in the transferred suspension. The glycine solution was prepared from solid glycine, which is available from VWR Scientific Products, among others. The above-identified 10 mL neutralized solution was then poured through a membrane filter having an average pore size of 0.45 micrometers. The filter was then rinsed twice with at least 150 mL of the 1% glycine solution per rinse. The filter was then placed on an agar plate and incubated for twenty-one days at 37° C. In the above procedure, if dilution was needed, then the 1 mL germicidal-cell suspension was diluted in 99 mL of a phosphate buffer before addition to the 9 mL of the 1% glycine solution. The phosphate buffer was DiLu-LoK™ Butterfields Phosphate Buffer, available from Hardy Diagnostics, of Santa Maria, Calif.
The surviving colonies are then counted. The data is plotted as S/So vs. time. So is the initial count of the bacteria in the above 10 mL solution which is at least 10^6 bacteria/mL, and S is the surviving bacteria from the above filter on the agar plate. The results of the experiments were presented in terms of log reductions. Log reduction is the difference between log(So) and log(S). As one example, if log(So)=6.2, and if there were 100 survivors, then the log(S)=2, and the log reduction was reported as 4.2.

solubility in water = assay type: physicochemical

O=Cc1ccc(Cl)cc1C=O [4-chloro-phthalaldehyde]
Log Reductions/mL ([1]; 2.7 w/v % in 20% isopropanol, 20° C., 5 min): Total Kill

4-pyridinyl-propanedial
Log Reductions/mL ([1]; Saturated (~2.3% w/v), 5 min, 20° C.): 4.0 log reductions/mL

O=Cc1ccc(C=O)cc1 [TPA, terephthalaldehyde, reference compound]
Log Reductions/mL ([1]; 0.2%, dissolved in 20% isopropanol, 20° C., 5 min): Confluent
Germicidal Efficacy [1]: Poor

O=Cc1ccccc1C(O)S(=O)(=O)[O-].[Na+] (centres unmarked) [(2-formyl-phenyl)-hydroxy-methane sulfonic acid, sodium salt]
Log Reductions/mL ([1]; 9.1%, 20° C., 5 min, listed as (2-formyl-phenyl)-hydroxy-methane sulfonate, sodium salt): confluent
Log Reductions/mL ([1]; 9.1%, 20° C., 5 min, listed as H-SULF, sodium salt): Confluent

O=Cc1ccc(Br)cc1C=O [4-bromo-phthalaldehyde]
Log Reductions/mL ([1]; 0.1%, 20° C., exposure time 30 minutes): Total Kill

O=CC(c1ccccc1)C(O)S(=O)(=O)[O-].[Na+] (centres unmarked) [1-hydroxy-3-oxo-2-phenyl-propane-1-sulfonic acid, sodium salt]
Log Reductions/mL ([1]; 0.6%, 20° C., 60 min, sodium salt): Total Kill
Log Reductions/mL ([1]; 2.5%, 20° C., 10 min, sodium salt): total kill

O=Cc1ccc(F)cc1C=O [4-fluoro-phthalaldehyde]
Log Reductions/mL ([1]; 0.25%, 20° C., exposure time 60 minutes): Total Kill

O=Cc1cccc(C=O)c1 [IPA, isophthalaldehyde, reference compound]
Log Reductions/mL ([1]; 0.3%, dissolved in 20% isopropanol, 20° C., 5 min (Table 11)): Confluent
Log Reductions/mL ([1]; 0.3%, dissolved in 20% isopropanol, 20° C., 5 min (Table 11), listed as EPA): confluent
Log Reductions/mL ([1]; 0.3%, dissolved in 20% isopropanol, 20° C., 5 min (Table 15)): Confluent
Germicidal Efficacy [1]: Poor

O=CC(C=O)c1ccccc1 [phenyl-propanedial]
solubility in water (solubility in water): about 1%
Log Reductions/mL ([1]; 0.4%, 20° C., 60 min (Table 5)): Total Kill
Log Reductions/mL ([1]; 0.44%, 20° C., 60 min (Table 15)): Total Kill
Log Reductions/mL ([1]; 0.66%, 20° C., 15 min (Table 15)): Total Kill
Log Reductions/mL ([1]; 0.7%, 20° C., 15 min (Table 5)): Total Kill
logs killed ([1]; 1% solution, 5 minutes, 20° C.): more than 4 logs
Log Reductions/mL ([1]; ~1%, 20° C., 5 min (Table 15)): 4.5 log reductions/mL

O=Cc1ccccc1C=O [OPA, phthalaldehyde]
solubility in water (solubility in water): about 5 % by weight
Germicidal Efficacy [1]: Good

Source: US7390837B2, “Germicidal compositions containing phenylmalonaldehyde-type compounds, or mixtures of phenylmalonaldehyde-type compounds and phthalaldehydes, and methods of using such compositions for disinfection or sterilization” (Ethicon, Inc., priority 2004, dated 2008)
